Source: US6479435B1, “Diaryl ethers and processes for their preparation and herbicidal and desiccant compositions containing them” (ISK Americas Incorporated, priority 1997, dated 2002)

Assays:
Assay type in all cases: in vivo
[1] = test system: soybean (Glycine max L., var. Pella 86, SOY); experiment: Post-emerge greenhouse test, crop damage rating; settings: 14 days after application
How it was run: (§1)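 Scores use a 0 (no damage) to 100 (complete kill) scale, taken 14 days after a foliar spray. Acetone solutions with 0.25% v/v non-ionic surfactant were applied by track sprayer at 187 l/ha and 63-1000 g ai/ha to bottom-watered 2-3 leaf plants.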

[2] = test system: sicklepod (Cassia obtusifolia, CASOB); experiment: Post-emerge greenhouse herbicide test, phytotoxicity rating; settings: 14 days after application
How it was run: as §1

[3] = test system: barnyardgrass (Echinochloa crusgalli, ECHCG); experiment: as above; settings: 14 days after application
How it was run: as §1

[4] = test system: lambsquarters (Chenopodium album, CHEAL); experiment: as above; settings: 14 days after application
How it was run: as §1

[5] = test system: Johnsongrass (Sorghum halepense, SORHA); experiment: as above; settings: 14 days after application
How it was run: as §1

[6] = test system: velvetleaf (Abutilon theophrasti, ABUTH); experiment: as above; settings: 14 days after application
How it was run: as §1

[7] = test system: redroot pigweed (Amaranthus retroflexus, AMARE); experiment: as above; settings: 14 days after application
How it was run: as §1

[8] = test system: large crabgrass (Digitaria sanguinalis, DIGSA); experiment: as above; settings: 14 days after application
How it was run: as §1

[9] = test system: ivyleaf morningglory (Ipomoea hederacea, IPOHE); experiment: as above; settings: 14 days after application
How it was run: as §1

[10] = test system: green foxtail (Setaria viridis, SETVI); experiment: as above; settings: 14 days after application
How it was run: as §1

[11] = test system: soybean (Glycine max L., var. Pella 86, SOY); experiment: Pre-emerge greenhouse test, crop damage rating; settings: 14 days after application, rating scale 0-100
How it was run: (§2)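 Visual 0–100 injury rating (100 = all plants dead) taken 14 days after treatment. Rates of 125–1000 g ai/ha in acetone, 187 l/ha, were sprayed onto soil one day post-sowing; pots were surface-watered to incorporate, then bottom-watered.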

[12] = test system: sicklepod (Cassia obtusifolia, CASOB); experiment: Pre-emerge greenhouse herbicide test, phytotoxicity rating; settings: 14 days after application, rating scale 0-100
How it was run: as §2

[13] = test system: barnyardgrass (Echinochloa crusgalli, ECHCG); experiment: as above; settings: 14 days after application, rating scale 0-100
How it was run: as §2

[14] = test system: lambsquarters (Chenopodium album, CHEAL); experiment: as above; settings: 14 days after application, rating scale 0-100
How it was run: as §2

[15] = test system: Johnsongrass (Sorghum halepense, SORHA); experiment: as above; settings: 14 days after application, rating scale 0-100
How it was run: as §2

[16] = test system: velvetleaf (Abutilon theophrasti, ABUTH); experiment: as above; settings: 14 days after application, rating scale 0-100
How it was run: as §2

[17] = test system: redroot pigweed (Amaranthus retroflexus, AMARE); experiment: as above; settings: 14 days after application, rating scale 0-100
How it was run: as §2

[18] = test system: large crabgrass (Digitaria sanguinalis, DIGSA); experiment: as above; settings: 14 days after application, rating scale 0-100
How it was run: as §2

[19] = test system: ivyleaf morningglory (Ipomoea hederacea, IPOHE); experiment: as above; settings: 14 days after application, rating scale 0-100
How it was run: as §2

[20] = test system: green foxtail (Setaria viridis, SETVI); experiment: as above; settings: 14 days after application, rating scale 0-100
How it was run: as §2

[21] = test system: common ragweed (Ambrosia artemisiifolia L., AMBEL); experiment: as above; settings: 14 days after application, rating scale 0-100
How it was run: as §2

[22] = test system: common ragweed (Ambrosia artemisiifolia L., AMBEL); experiment: Post-emerge greenhouse herbicide test, phytotoxicity rating; settings: 14 days after application
How it was run: as §1

[23] = test system: field corn (Zea mays L., var. Dekalb 535, CORN); experiment: Pre-emerge greenhouse test, crop damage rating; settings: 14 days after application, rating scale 0-100
How it was run: as §2

[24] = test system: upland rice (Oryza sp., var.Tebonnet, RICE); experiment: Pre-emerge greenhouse test, crop damage rating; settings: 14 days after application, rating scale 0-100
How it was run: as §2

[25] = test system: field corn (Zea mays L., var. Dekalb 535, CORN); experiment: Post-emerge greenhouse test, crop damage rating; settings: 14 days after application
How it was run: as §1

[26] = test system: upland rice (Oryza sp., var.Tebonnet, RICE); experiment: Post-emerge greenhouse test, crop damage rating; settings: 14 days after application
How it was run: as §1

O=c1n(CCCF)nnn1-c1cc(Oc2ccc(C(F)(F)F)cn2)c(Cl)cc1F [Compound 6-8]
SOY crop damage rating (0-100) ([1]; 500 g al/ha): 60
CASOB phytotoxicity rating (0-100) ([2]; 500 g al/ha): 40
ECHCG phytotoxicity rating (0-100) ([3]; 500 g al/ha): 10
CHEAL phytotoxicity rating (0-100) ([4]; 500 g al/ha): 95
SORHA phytotoxicity rating (0-100) ([5]; 500 g al/ha): 10
ABUTH phytotoxicity rating (0-100) ([6]; 500 g al/ha): 98
AMARE phytotoxicity rating (0-100) ([7]; 500 g al/ha): 80
DIGSA phytotoxicity rating (0-100) ([8]; 500 g al/ha): 20
IPOHE phytotoxicity rating (0-100) ([9]; 500 g al/ha): 60
SETVI phytotoxicity rating (0-100) ([10]; 500 g al/ha): 90
crop damage rating SOY ([11]; 500 g ai/ha): 0
phytotoxicity rating CASOB ([12]; 500 g ai/ha): 0
phytotoxicity rating ECHCG ([13]; 500 g ai/ha): 0
phytotoxicity rating CHEAL ([14]; 500 g ai/ha): 100
phytotoxicity rating SORHA ([15]; 500 g ai/ha): 80
phytotoxicity rating ABUTH ([16]; 500 g ai/ha): 80
phytotoxicity rating AMARE ([17]; 500 g ai/ha): 85
phytotoxicity rating DIGSA ([18]; 500 g ai/ha): 75
phytotoxicity rating IPOHE ([19]; 500 g ai/ha): 0
phytotoxicity rating SETVI ([20]; 500 g ai/ha): 100
phytotoxicity rating AMBEL ([21]; 500 g ai/ha): 0
AMBEL phytotoxicity rating (0-100) ([22]; 500 g al/ha): 20
crop damage rating CORN ([23]; 500 g ai/ha): 0
crop damage rating RICE ([24]; 500 g ai/ha): 10
CORN crop damage rating (0-100) ([25]; 500 g al/ha): 5
RICE crop damage rating (0-100) ([26]; 500 g al/ha): 35

O=c1sc(=Nc2cc(Oc3ncccn3)c(Cl)cc2F)n2n1CCCC2 [Compound 7-2]
SOY crop damage rating (0-100) ([1]; 63 g al/ha): 95
SOY crop damage rating (0-100) ([1]; 500 g al/ha): 100
CASOB phytotoxicity rating (0-100) ([2]; 63 g al/ha): 100
CASOB phytotoxicity rating (0-100) ([2]; 500 g al/ha): 100
ECHCG phytotoxicity rating (0-100) ([3]; 63 g al/ha): 40
ECHCG phytotoxicity rating (0-100) ([3]; 500 g al/ha): 95
CHEAL phytotoxicity rating (0-100) ([4]; 63 g al/ha): 100
CHEAL phytotoxicity rating (0-100) ([4]; 500 g al/ha): 100
SORHA phytotoxicity rating (0-100) ([5]; 63 g al/ha): 60
SORHA phytotoxicity rating (0-100) ([5]; 500 g al/ha): 100
ABUTH phytotoxicity rating (0-100) ([6]; 63 g al/ha): 100
ABUTH phytotoxicity rating (0-100) ([6]; 500 g al/ha): 100
AMARE phytotoxicity rating (0-100) ([7]; 63 g al/ha): 100
AMARE phytotoxicity rating (0-100) ([7]; 500 g al/ha): 100
DIGSA phytotoxicity rating (0-100) ([8]; 63 g al/ha): 30
DIGSA phytotoxicity rating (0-100) ([8]; 500 g al/ha): 85
IPOHE phytotoxicity rating (0-100) ([9]; 63 g al/ha): 100
IPOHE phytotoxicity rating (0-100) ([9]; 500 g al/ha): 100
SETVI phytotoxicity rating (0-100) ([10]; 63 g al/ha): 90
SETVI phytotoxicity rating (0-100) ([10]; 500 g al/ha): 100
crop damage rating SOY ([11]; 125 g ai/ha): 0
crop damage rating SOY ([11]; 500 g ai/ha): 80
phytotoxicity rating CASOB ([12]; 125 g ai/ha): 60
phytotoxicity rating CASOB ([12]; 500 g ai/ha): 100
phytotoxicity rating ECHCG ([13]; 125 g ai/ha): 99
phytotoxicity rating ECHCG ([13]; 500 g ai/ha): 100
phytotoxicity rating CHEAL ([14]; 125 g ai/ha): 100
phytotoxicity rating CHEAL ([14]; 500 g ai/ha): 100
phytotoxicity rating SORHA ([15]; 125 g ai/ha): 95
phytotoxicity rating SORHA ([15]; 500 g ai/ha): 100
phytotoxicity rating ABUTH ([16]; 125 g ai/ha): 100
phytotoxicity rating ABUTH ([16]; 500 g ai/ha): 100
phytotoxicity rating AMARE ([17]; 125 g ai/ha): 100
phytotoxicity rating AMARE ([17]; 500 g ai/ha): 100
phytotoxicity rating DIGSA ([18]; 125 g ai/ha): 100
phytotoxicity rating DIGSA ([18]; 500 g ai/ha): 100
phytotoxicity rating IPOHE ([19]; 125 g ai/ha): 100
phytotoxicity rating IPOHE ([19]; 500 g ai/ha): 100
phytotoxicity rating SETVI ([20]; 125 g ai/ha): 100
phytotoxicity rating SETVI ([20]; 500 g ai/ha): 100
phytotoxicity rating AMBEL ([21]; 125 g ai/ha): 100
phytotoxicity rating AMBEL ([21]; 500 g ai/ha): 100
AMBEL phytotoxicity rating (0-100) ([22]; 63 g al/ha): 100
AMBEL phytotoxicity rating (0-100) ([22]; 500 g al/ha): 100
crop damage rating CORN ([23]; 125 g ai/ha): 45
crop damage rating CORN ([23]; 500 g ai/ha): 70
crop damage rating RICE ([24]; 125 g ai/ha): 90
crop damage rating RICE ([24]; 500 g ai/ha): 100
CORN crop damage rating (0-100) ([25]; 63 g al/ha): 35
CORN crop damage rating (0-100) ([25]; 500 g al/ha): 90
RICE crop damage rating (0-100) ([26]; 63 g al/ha): 80
RICE crop damage rating (0-100) ([26]; 500 g al/ha): 95
